Experimental data published in patent US9914747B2 (priority 2014, dated 2018).

test system: recombinant NL4-3 virus (NLRluc, Renilla luciferase in nef, Gag P373S); test: HIV Cell Culture Assay (luciferase reporter virus in MT-2 cells); format: cell-based; conditions: NL43, read-out: WT EC50
Experimental: MT-2 cells and 293T cells were obtained from the NIH AIDS Research and Reference Reagent Program. MT-2 cells were propagated in RPMI 1640 media supplemented with 10% heat inactivated fetal bovine serum, […]. The 293T cells were propagated in DMEM media supplemented with 10% heat inactivated fetal bovine serum (FBS), 100 units/mL penicillin G and 100 μg/mL streptomycin. The proviral DNA clone of NL4-3 was obtained from the NIH AIDS Research and Reference Reagent Program. A recombinant NL4-3 virus, in which a section of the nef gene from NL4-3 was replaced with the Renilla luciferase gene, was used as a reference virus. In addition, residue Gag P373 was converted to P373S. Briefly, the recombinant virus was prepared by transfection of the altered proviral clone of NL4-3. Transfections were performed in 293T cells using LipofectAMINE PLUS from Invitrogen (Carlsbad, Calif.), according to manufacturer's instruction. The virus was titered in MT-2 cells using luciferase enzyme activity as a marker. Luciferase was quantitated using the Dual Luciferase kit from Promega (Madison, Wis.), with modifications to the manufacturer's protocol. The diluted Passive Lysis solution was pre-mixed with the re-suspended Luciferase Assay Reagent and the re-suspended Stop & Glo Substrate (2:1:1 ratio). Fifty (50) […] of the mixture was added to each aspirated well on assay plates and luciferase activity was measured immediately on a Wallac TriLux (Perkin-Elmer). Antiviral activities of inhibitors toward the recombinant virus were quantified by measuring luciferase activity in cells infected for 4-5 days with NLRluc recombinants in the presence serial dilutions of the inhibitor. Biological Data Key for EC50

**Q.** For `C=C(C)[C@@H]1CC[C@]2(/C=C/C(=O)NCCCN3CCS(=O)(=O)CC3)CC[C@]3(C)[C@H](CC[C@@H]4[C@@]5(C)CC=C(c6ccc(C(=O)O)cc6)C(C)(C)[C@@H]5CC[C@]43C)[C@@H]12` [Example 4, 4-((1R,3aR,5aR,5bR,7aR,11aS,11bR,13aR,13bR)-3a-((E)-3-((3-(1,1-dioxidothiomorpholino)propyl)amino)-3-oxoprop-1-en-1-yl)-5a,5b,8,8,11a-pentamethyl-1-(prop-1-en-2-yl)-2,3,3a,4,5,5a,5b,6,7,7a,8,11,11a,11b,12,13,13a,13b-octadecahydro-1H-cyclopenta[a]chrysen-9-yl)benzoic acid], which EC50 is on record?
**A.** > 0.1 µM

**Q.** With `CC(C)[C@@H]1CC[C@]2([C@H](O)CN(CCN(C)C)Cc3ccc(Cl)cc3)CC[C@]3(C)[C@H](CC[C@@H]4[C@@]5(C)CC=C(C6=CC[C@](CF)(C(=O)O)CC6)C(C)(C)[C@@H]5CC[C@]43C)[C@@H]12` (single isomer, unassigned) [Example 15] as the molecule, how does the EC50 read?
**A.** < 0.1 µM

**Q.** How did the EC50 turn out when `C=C(C)[C@@H]1CC[C@]2(CCN(C)CCN3CCS(=O)(=O)CC3)CC[C@]3(C)[C@H](CC[C@@H]4[C@@]5(C)CC=C(c6ccc(C(=O)O)cc6)C(C)(C)[C@@H]5CC[C@]43C)[C@@H]12` [Example 12, 4-((1R,3aR,5aR,5bR,7aR,11aS,11bR,13aR,13bR)-3a-(2-((2-(1,1-dioxidothiomorpholino)ethyl)(methyl)amino)ethyl)-5a,5b,8,8,11a-pentamethyl-1-(prop-1-en-2-yl)-2,3,3a,4,5,5a,5b,6,7,7a,8,11,11a,11b,12,13,13a,13b-octadecahydro-1H-cyclopenta[a]chrysen-9-yl)benzoic acid] was run?
**A.** < 0.1 µM

**Q.** For `C=C(C)[C@@H]1CC[C@]2(C(=O)C(=O)NCCN3CCS(=O)(=O)CC3)CC[C@]3(C)[C@H](CC[C@@H]4[C@@]5(C)CC=C(c6ccc(C(=O)O)cc6)C(C)(C)[C@@H]5CC[C@]43C)[C@@H]12` [Example 9, 4-((1R,3aS,5aR,5bR,7aR,11aS,11bR,13aR,13bR)-3a-(2-((2-(1,1-dioxidothiomorpholino)ethyl)amino)-2-oxoacetyl)-5a,5b,8,8,11a-pentamethyl-1-(prop-1-en-2-yl)-2,3,3a,4,5,5a,5b,6,7,7a,8,11,11a,11b, 12,13,13a,13b-octadecahydro-1H-cyclopenta[a]chrysen-9-yl)benzoic acid], which EC50 is on record?
**A.** < 0.1 µM

**Q.** Which EC50 does the source give for `CC(C)[C@@H]1CC[C@]2(C(O)CNCCN(C)C)CC[C@]3(C)[C@H](CC[C@@H]4[C@@]5(C)CC=C(C6=CC[C@](CF)(C(=O)O)CC6)C(C)(C)[C@@H]5CC[C@]43C)[C@@H]12` (single isomer, unassigned) [Example 14] here?
**A.** < 0.1 µM

**Q.** For `C=C(C)[C@@H]1CC[C@]2(CCC(=O)N3CCS(=O)(=O)CC3)CC[C@]3(C)[C@H](CC[C@@H]4[C@@]5(C)CC=C(c6ccc(C(=O)O)cc6)C(C)(C)[C@@H]5CC[C@]43C)[C@@H]12` [Example 7, 4-((1R,3aR,5aR,5bR,7aR,11aS,11bR,13aR,13bR)-3a-(3-(1,1-dioxidothiomorpholino)-3-oxopropyl)-5a,5b,8,8,11a-pentamethyl-1-(prop-1-en-2-yl)-2,3,3a,4,5,5a,5b,6,7,7a,8,11,11a,11b,12,13,13a,13b-octadecahydro-1H-cyclopenta[a]chrysen-9-yl)benzoic acid], which EC50 is on record?
**A.** 0.00566 µM

**Q.** With `C=C(C)[C@@H]1CC[C@]2(/C=C/C(=O)NCCN(C)C)CC[C@]3(C)[C@H](CC[C@@H]4[C@@]5(C)CC=C(c6ccc(C(=O)O)cc6)C(C)(C)[C@@H]5CC[C@]43C)[C@@H]12` [Example 2, 4-((1R,3aR,5aR,5bR,7aR,11aS,11bR,13aR,13bR)-3a-((E)-3-((2-(dimethylamino)ethyl)amino)-3-oxoprop-1-en-1-yl)-5a,5b,8,8,11a-pentamethyl-1-(prop-1-en-2-yl)-2,3,3a,4,5,5a,5b,6,7,7a,8,11,11a,11b,12,13,13a,13b-octadecahydro-1H-cyclopenta[a]chrysen-9-yl)benzoic acid] as the molecule, how does the EC50 read?
**A.** > 0.1 µM

**Q.** Which EC50 does the source give for `C=C(C)[C@@H]1CC[C@]2(/C=C/C(=O)O)CC[C@]3(C)[C@H](CC[C@@H]4[C@@]5(C)CC=C(c6ccc(C(=O)O)cc6)C(C)(C)[C@@H]5CC[C@]43C)[C@@H]12` [Example 1, 4-((1R,3aR,5aR,5bR,7aR,11aS,11bR,13aR,13bR)-3a-((E)-2-carboxyvinyl)-5a,5b,8,8,8,11a-pentamethyl-1-(prop-1-en-2-yl)-2,3,3a,4,5,5a,5b,6,7,7a,8,11,11a,11b,12,13,13a,13b-octadecahydro-1H-cyclopenta[a]chrysen-9-yl)benzoic acid] here?
**A.** 0.02 µM

**Q.** With `C=C(C)[C@@H]1CC[C@]2(CCN3CCS(=O)(=O)CC3)CC[C@]3(C)[C@H](CC[C@@H]4[C@@]5(C)CC=C(c6ccc(C(=O)O)cc6)C(C)(C)[C@@H]5CC[C@]43C)[C@@H]12` [Example 10, 4-((1R,3aR,5aR,5bR,7aR,11aS,11bR,13aR,13bR)-3a-(2-(1,1-dioxidothiomorpholino)ethyl)-5a,5b,8,8,11a-pentamethyl-1-(prop-1-en-2-yl)-2,3,3a,4,5,5a,5b,6,7,7a,8,11,11a,11b,12,13,13a,13b-octadecahydro-1H-cyclopenta[a]chrysen-9-yl)benzoic acid] as the molecule, how does the EC50 read?
**A.** < 0.1 µM

**Q.** How did the EC50 turn out when `C=C(C)[C@@H]1CC[C@]2(/C=C/CN3CCS(=O)(=O)CC3)CC[C@]3(C)[C@H](CC[C@@H]4[C@@]5(C)CC=C(c6ccc(C(=O)O)cc6)C(C)(C)[C@@H]5CC[C@]43C)[C@@H]12` [Example 6, 4-((1R,3aR,5aR,5bR,7aR,11aS,11bR,13aR,13bR)-3a-((E)-3-(1,1-dioxidothiomorpholino)prop-1-en-1-yl)-5a,5b,8,8,11a-pentamethyl-1-(prop-1-en-2-yl)-2,3,3a,4,5,5a,5b,6,7,7a,8,11,11a,11b,12,13,13a,13b-octadecahydro-1H-cyclopenta[a]chrysen-9-yl)benzoic acid] was run?
**A.** < 0.1 µM

**Q.** Which EC50 does the source give for `C=C(C)[C@@H]1CC[C@]2(C(=O)C(=O)NCCCN3CCS(=O)(=O)CC3)CC[C@]3(C)[C@H](CC[C@@H]4[C@@]5(C)CC=C(c6ccc(C(=O)O)cc6)C(C)(C)[C@@H]5CC[C@]43C)[C@@H]12` [Example 8, 4-((1R,3aS,5aR,5bR,7aR,11aS,11bR,13aR,13bR)-3a-(2-((3-(1,1-dioxidothiomorpholino)propyl)amino)-2-oxoacetyl)-5a,5b,8,8,11a-pentamethyl-1-(prop-1-en-2-yl)-2,3,3a,4,5,5a,5b,6,7,7a,8,11,11a,11b,12,13,13a,13b-octadecahydro-1H-cyclopenta[a]chrysen-9-yl)benzoic acid] here?
**A.** < 0.1 µM

**Q.** `C=C(C)[C@@H]1CC[C@]2(/C=C/C(=O)N(C)OC)CC[C@]3(C)[C@H](CC[C@@H]4[C@@]5(C)CC=C(c6ccc(C(=O)O)cc6)C(C)(C)[C@@H]5CC[C@]43C)[C@@H]12` [Example 5, 4-((1R,3aR,5aR,5bR,7aR,11aS,11bR,13aR,13bR)-3a-((E)-3-(methoxy(methyl)amino)-3-oxoprop-1-en-1-yl)-5a,5b,8,8,11a-pentamethyl-1-(prop-1-en-2-yl)-2,3,3a,4,5,5a,5b,6,7,7a,8,11,11a,11b,12,13,13a,13b-octadecahydro-1H-cyclopenta[a]chrysen-9-yl)benzoic acid] was tested. Which EC50 did it give?
**A.** < 0.1 µM

**Q.** Which EC50 does the source give for `C=C(C)[C@@H]1CC[C@]2(CCNCCN3CCS(=O)(=O)CC3)CC[C@]3(C)[C@H](CC[C@@H]4[C@@]5(C)CC=C(c6ccc(C(=O)O)cc6)C(C)(C)[C@@H]5CC[C@]43C)[C@@H]12` [Example 11, 4-((1R,3aR,5aR,5bR,7aR,11aS,11bR,13aR,13bR)-3a-(2-((2-(1,1-dioxidothiomorpholino)ethyl)amino)ethyl)-5a,5b,8,8,11a-pentamethyl-1-(prop-1-en-2-yl)-2,3,3a,4,5,5a,5b,6,7,7a,8,11,11a,11b,12,13,13a,13b-octadecahydro-1H-cyclopenta[a]chrysen-9-yl)benzoic acid] here?
**A.** 0.00124 µM

**Q.** `C=C(C)[C@@H]1CC[C@]2(/C=C/C(=O)N3CCS(=O)(=O)CC3)CC[C@]3(C)[C@H](CC[C@@H]4[C@@]5(C)CC=C(c6ccc(C(=O)O)cc6)C(C)(C)[C@@H]5CC[C@]43C)[C@@H]12` [Example 3, 4-((1R,3aR,5aR,5bR,7aR,11aS,11bR,13aR,13bR)-3a-((E)-3-(1,1-dioxidothiomorpholino)-3-oxoprop-1-en-1-yl)-5a,5b,8,8,11a-pentamethyl-1-(prop-1-en-2-yl)-2,3,3a,4,5,5a,5b,6,7,7a,8,11,11a,11b,12,13,13a,13b-octadecahydro-1H-cyclopenta[a]chrysen-9-yl)benzoic acid] was tested. Which EC50 did it give?
**A.** < 0.1 µM

**Q.** Which EC50 does the source give for `CC(C)[C@@H]1CC[C@]2([C@@H](O)CN(CCN(C)C)Cc3ccc(Cl)cc3)CC[C@]3(C)[C@H](CC[C@@H]4[C@@]5(C)CC=C(C6=CC[C@](CF)(C(=O)O)CC6)C(C)(C)[C@@H]5CC[C@]43C)[C@@H]12` (single isomer, unassigned) [Example 16] here?
**A.** 0.13 µM
